What follows are compounds tested against T1, K-Ras G12S (Homo sapiens, UniProt P01116, G12S) (assay: HTRF assay of the K-Ras / SOS1 interaction). Conditions: IC50 (against K-Ras G12D) to IC50 (against K-Ras G12S).
T1 construct: made in house; host or cells: E. coli (e.g., BL21 (DE3))
Format: biochemical
Description: This assay can be also used to assess a selective inhibition or reduction of signaling output of a mutant Ras protein relative to a wildtype, or relative to a different mutant Ras protein. For example, the equilibrium interaction of wildtype Kras or K-Ras mutant (e.g., wildtype or a mutant thereof including those mentioned in Example 6) with SOS1 (e.g., hSOS1) can be assessed as a proxy or an indication for a subject compound's ability to bind and inhibit Ras protein. HTRF assay detects from (i) a fluorescence resonance energy transfer (FRET) donor (e.g., antiGST-Europium) that is bound to GST-tagged K-Ras mutant to (ii) a FRET acceptor (e.g., anti-6His-XL665) bound to a His-tagged hSOS 1.
The assay buffer can contain ~5 mM HEPES pH 7.4, -150 mM NaCI, - 1 mM DTT, 0.05% BSA and 0.0025% (v/v) Igepal. A Ras working solution is prepared in an assay buffer containing typically a suitable amount of the protein construct (e.g., GST-tagged K-Ras mutant) and the FRET donor (e.g., antiGST-Eu(K) from Cisbio, France). A SOS1 working solution is prepared in an assay buffer containing suitable amount of the protein construct (e.g., His-hSOS1) and the FRET acceptor (e.g., anti-6His-XL665 from Cisbio, France). A suitable amount of the protein construct will depend on the range of activity or range of IC50 values being detected or under investigation. For detecting IC50 within a range of 500 nM, the protein constructs of the same range of molarity can be utilized.
A fixed volume of DMSO with or without test compound is transferred into a 384-well plate. Ras working solution is added to all wells of the test plate. SOS1 working solution is added to all wells except for those that are subsequently filled the inhibitor control solution. Upon incubation for about 10 minutes or longer, the fluorescence is measured with a M1000Pro plate reader (Tecan) using HTRF detection (excitation 337nm, emission 1 : 620nm, emission 2: 665nm). Compounds are tested in duplicates at different concentrations (for example, 10 µM, 2.5 µM, 0.63 µM, 0.16 µM, 0.04 µM, 0.01 µM test compound). The ratiometric data (i.e., emission 2 divided by emission 1) is used to calculate IC50 values against Ras using GraphPad Prism (GraphPad software). Following this general procedure, samples were tested with or without a subject compound disclosed herein including compounds exemplified in Table 3 to assess their abilities to inhibit K-Ras G12S relative to another mutant (e.g., K-Ras G12D). Signaling output measured in terms of IC50 values can be obtained, a ratio of IC50 against one mutant relative to another mutant can be calculated. For instance, a selective reduction of K-Ras G12S signaling output can be evidenced by a ratio greater than one. In particular, a selective reduction of K-Ras G12S signaling relative to K-Ras G12D signaling is evidenced as the ratio of IC50 (against K-Ras G12D) to IC50 (against K-Ras G12S) is greater than 1. […]

| Compound | Ratio of IC50 KRAS G12D vs. IC50 KRAS G12S |
| --- | --- |
| 1-(7-(7-(2-amino-7-fluorobenzo[d]thiazol-4-yl)-6-chloro-8-fluoro-2-(((2R,7aS)-2-fluorotetrahydro-1H-pyrrolizin-7a(5H)-yl)methoxy)quinazolm-4-yl)-2,7-diazaspiro[3.5]nonane-2-carbonyl)-1H-imidazole-4-carbonitrile [Compound A179] | A (A: indicates that the ratio of IC50 against KrasG12D vs. IC50 against KrasG12S is 1-fold or greater) |
| Cc1cnn(C(=O)N2C3CCC2CN(c2nc(OC[C@@]45CCCN4C[C@H](F)C5)nc4c(F)c(-c5ccc(F)c6sc(N)nc56)c(Cl)cc24)C3)c1 [Compound A113, (3-(7-(2-amino-7-fluorobenzo[d]thiazol-4-yl)-6-chloro-8-fluoro-2-(((2R,7aS)-2-fluorotetrahydro-1H-pyrrolizin-7a(5H)-yl)methoxy)quinazolin-4-yl)-3,8-diazabicyclo[3.2.1]octan-8-yl)(4-methyl-1H-pyrazol-1-yl)methanone] | A (A: indicates that the ratio of IC50 against KrasG12D vs. IC50 against KrasG12S is 1-fold or greater) |
| C[C@H](Oc1nc(N2CCN(C(=O)Nc3nccs3)CC(O)C2)c2cc(Cl)c(-c3ccc(F)c4sc(N)c(C#N)c34)c(F)c2n1)[C@@H]1CCCN1C (stereo partly drawn) [Compound A118, 4-(7-(2-amino-3-cyano-7-fluorobenzo[b]thiophen-4-yl)-6-chloro-8-fluoro-2-((S)-1-((S)-1-methylpyrrolidin-2-yl)ethoxy)quinazolin-4-yl)-6-hydroxy-N-(thiazol-2-yl)-1,4-diazepane-1-carboxamide] | A (A: indicates that the ratio of IC50 against KrasG12D vs. IC50 against KrasG12S is 1-fold or greater) |
| N#Cc1cnn(C(=O)N2C3CCC2CN(c2nc(OC[C@@]45CCCN4C[C@H](F)C5)nc4c(F)c(-c5cc(O)cc6ccccc56)ccc24)C3)c1 [Compound A120, 1-(3-(8-fluoro-2-(((2R,7aS)-2-fluorotetrahydro-1H-pyrrolizin-7a(5H)-yl)methoxy)-7-(3-hydroxynaphthalen-1-yl)quinazolin-4-yl)-3,8-diazabicyclo[3.2. 1]octane-8-carbonyl)-1H-pyrazole-4-carbonitrile] | A (A: indicates that the ratio of IC50 against KrasG12D vs. IC50 against KrasG12S is 1-fold or greater) |
| N#Cc1c(N)sc2c(F)ccc(-c3c(Cl)cc4c(N5CCN(CC6CC6)C6(CN(C(=O)n7cncn7)C6)C5)nc(OC[C@@]56CCCN5C[C@H](F)C6)nc4c3F)c12 [Compound A139, 2-amino-4-(6-chloro-4-(5-(cyclopropylmethyl)-2-(1H-1,2,4-triazole-1-carbonyl)-2,5,8-triazaspiro[3.5]nonan-8-yl)-8-fluoro-2-(((2R,7aS)-2-fluorotetrahydro-1H-pyrrolizin-7a(5H)-yl)methoxy)quinazolin-7-yl)-7-fluorobenzo[b]thiophene-3-carbonitrile] | A (A: indicates that the ratio of IC50 against KrasG12D vs. IC50 against KrasG12S is 1-fold or greater) |
| Nc1nc2c(-c3c(Cl)cc4c(NC5CCC6(C5)CN(C(=O)n5cncn5)C6)nc(OC[C@@]56CCCN5C[C@H](F)C6)nc4c3F)ccc(F)c2s1 (stereo partly drawn) [Compound A142, (6-((7-(2-amino-7-fluorobenzo[d]thiazol-4-yl)-6-chloro-8-fluoro-2-(((2R,7aS)-2-fluorotetrahydro-1H-pyrrolizin-7a(5H)-yl)methoxy)quinazolin-4-yl)amino)-2-azaspiro[3.4]octan-2-yl)(1H-1,2,4-triazol-1-yl)methanone] | A (A: indicates that the ratio of IC50 against KrasG12D vs. IC50 against KrasG12S is 1-fold or greater) |
| Nc1nc2c(-c3c(Cl)cc4c(NC5CCN(C(=O)Nc6ccncn6)CC5)nc(OC[C@@]56CCCN5C[C@H](F)C6)nc4c3F)ccc(F)c2s1 [Compound A147, 4-((7-(2-amino-7-fluorobenzo[d]thiazol-4-yl)-6-chloro-8-fluoro-2-(((2R,7aS)-2-fluorotetrahydro-1H-pyrrolizin-7a(5H)-yl)methoxy)quinazolin-4-yl)amino)-N-(pyrimidin-4-yl)piperidine-1-carboxamide] | A (A: indicates that the ratio of IC50 against KrasG12D vs. IC50 against KrasG12S is 1-fold or greater) |
| N#Cc1c(N)sc2c(F)ccc(-c3c(Cl)cc4c(OC5CCN(C(=O)Nc6nccs6)C5)nc(OC[C@@]56CCCN5C[C@H](F)C6)nc4c3F)c12 (stereo partly drawn) [Compound A150, 3-((7-(2-amino-3-cyano-7-fluorobenzo[b]thiophen-4-yl)-6-chloro-8-fluoro-2-(((2R,7aS)-2-fluorotetrahydro-1H-pyrrolizin-7a(5H)-yl)methoxy)quinazolin-4-yl)oxy)-N-(thiazol-2-yl)pyrrolidine-1-carboxamide] | A (A: indicates that the ratio of IC50 against KrasG12D vs. IC50 against KrasG12S is 1-fold or greater) |
| N#Cc1nccn1C(=O)N1CCC(Nc2nc(OC[C@@]34CCCN3C[C@H](F)C4)nc3c(F)c(-c4ccc(F)c5sc(N)nc45)c(Cl)cc23)CC1 [Compound A155, 1-(4-((7-(2-amino-7-fluorobenzo[d]thiazol-4-yl)-6-chloro-8-fluoro-2-(((2R,7aS)-2-fluorotetrahydro-1H-pyrrolizin-7a(5H)-yl)methoxy)quinazolin-4-yl)amino)piperidine-1-carbonyl)-1H-imidazole-2-carbonitrile] | A (A: indicates that the ratio of IC50 against KrasG12D vs. IC50 against KrasG12S is 1-fold or greater) |
| N#Cc1c(N)sc2c(F)ccc(-c3c(Cl)cc4c(N5CCN(C(=O)Nc6nccs6)CC(O)C5)nc(OC[C@@]56CCCN5C[C@H](F)C6)nc4c3F)c12 (stereo partly drawn) [Compound A164, 4-(7-(2-amino-3-cyano-7-fluorobenzo[b]thiophen-4-yl)-6-chloro-8-fluoro-2-(((2R,7aS)-2-fluorotetrahydro-1H-pyrrolizin-7a(5H)-yl)methoxy)quinazolin-4-yl)-6-hydroxy-N-(thiazol-2-yl)-1,4-diazepane-1-carboxamide] | A (A: indicates that the ratio of IC50 against KrasG12D vs. IC50 against KrasG12S is 1-fold or greater) |
| Nc1nc2c(-c3c(Cl)cc4c(N5CC(N6CCN(C(=O)n7cncn7)CC6)C5)nc(OC[C@@]56CCCN5C[C@H](F)C6)nc4c3F)ccc(F)c2s1 [Compound A166, (4-(1-(7-(2-amino-7-fluorobenzo[d]thiazol-4-yl)-6-chloro-8-fluoro-2-(((2R,7aS)-2-fluorotetrahydro-1H-pyrrolizin-7a(5H)-yl)methoxy)quinazolin-4-yl)azetidin-3-yl)piperazin-1-yl)(1H-1,2,4-triazol-1-yl)methanone] | A (A: indicates that the ratio of IC50 against KrasG12D vs. IC50 against KrasG12S is 1-fold or greater) |
| C[C@H](Oc1nc(N2CCCCC3(CN(C(=O)n4cncn4)C3)C2)c2cc(Cl)c(-c3ccc(F)c4sc(N)c(C#N)c34)c(F)c2n1)[C@@H]1CCCN1C [Compound A167, 4-(4-(2-(1H-1,2,4-triazole-1-carbonyl)-2,6-diazaspiro[3.6]decan-6-yl)-6-chloro-8-fluoro-2-((S)-1-((S)-1-methylpyrrolidin-2-yl)ethoxy)quinazolin-7-yl)-2-amino-7-fluorobenzo[b]thiophene-3-carbonitrile] | A (A: indicates that the ratio of IC50 against KrasG12D vs. IC50 against KrasG12S is 1-fold or greater) |
| N#Cc1cccn1C(=O)N1CC2CCC(C1)N2c1nc(OC[C@@]23CCCN2C[C@H](F)C3)nc2c(F)c(-c3ccc(F)c4sc(N)nc34)c(Cl)cc12 [Compound A172, 1-(8-(7-(2-amino-7-fluorobenzo[d]thiazol-4-yl)-6-chloro-8-fluoro-2-(((2R,7aS)-2-fluorotetrahydro-1H-pyrrolizin-7a(5H)-yl)methoxy)quinazolin-4-yl)-3,8-diazabicyclo[3.2. 1]octane-3-carbonyl)-1H-pyrrole-2-carbonitrile] | A (A: indicates that the ratio of IC50 against KrasG12D vs. IC50 against KrasG12S is 1-fold or greater) |

Source: patent EP4389751A1, “HETEROCYCLIC COMPOUNDS AND USES THEREOF” (Kumquat Biosciences Inc., priority 2021, dated 2024)
